Results: PubChem BioAssay AID1648 (Sanford-Burnham Center for Chemical Genomics, 2009)
The source made the active and inactive calls. No rule for the calls is given here.

molecular target: Serine/threonine-protein kinase mTOR (Homo sapiens) (UniProt P42345); test: binders of mTOR FRB domain, biophysical, NMR (AID 1648); details: NMR binding to FRB domain, chemical shift
Sequence (P42345 2015-2114): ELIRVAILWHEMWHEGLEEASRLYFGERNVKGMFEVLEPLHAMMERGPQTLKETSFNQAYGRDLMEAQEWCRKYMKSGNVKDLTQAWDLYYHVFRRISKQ

Row | SMILES | Kd
1 | Cc1nnc(-n2cnc3ccccc32)c2ccccc12 | > 4 mM (inactive)
2 | C1CCN2C[C@@H]3C[C@H](CN4CCCC[C@@H]34)[C@H]2C1 | > 4 mM (inactive)
3 | Cc1cc(C)n(S(=O)(=O)c2ccc(C)c(C)c2C)n1 | > 4 mM (inactive)
4 | CCCCCc1c2c(cc(O)c1C(=O)O)OC(=O)c1c(cc(OC)cc1C(=O)CCCC)O2 | > 4 mM (inactive)
5 | NC1=NC(=O)/C(=C/c2cccs2)S1 | > 4 mM (inactive)
6 | COCc1c(CN)cnc(C)c1N | > 4 mM (inactive)
7 | COc1ccc2c(C)cc(=O)oc2c1 | > 4 mM (inactive)
8 | Cc1ccc(-c2nc(-c3cccnc3)no2)c(C)c1 | > 4 mM (inactive)
9 | Cc1ccc(O)c(NC(=O)c2ccco2)c1 | > 4 mM (inactive)
10 | Cc1nc(-c2cnccn2)sc1C(=O)O | > 4 mM (inactive)
11 | O=C(Nc1ccon1)c1csc2c1CCCC2 | > 4 mM (inactive)
12 | O=C(c1ncc[nH]1)c1ccccc1C(=O)N1CCOCC1 | > 4 mM (inactive)
13 | CCn1c(C)c(C(C)=O)c(N2CCN(C)CC2)nc1=S | > 4 mM (inactive)
14 | OCc1ccc(OC(F)(F)F)cc1 | > 4 mM (inactive)
15 | NC(=O)C1CCN(Cc2ccccc2)CC1 | > 4 mM (inactive)
16 | Cn1nc(C(=O)Nc2cccnc2)c2ccccc2c1=O | > 4 mM (inactive)
17 | CCOC(=O)c1c(C)nc2c(C#N)cnn2c1C | > 4 mM (inactive)
18 | Cc1nc(-c2ccccc2)sc1C(N)=O | > 4 mM (inactive)
19 | CC(=O)O[C@@H]1C=C[C@@]2(C)C(C[C@@H](OC(C)=O)[C@@]3(C)C4=CC(=O)O[C@@H](c5ccoc5)[C@]4(C)CCC23)C1(C)C (stereo not given in full) | > 4 mM (inactive)
20 | CC(=O)/C=C\[C@@H]1[C@@]2(C)CCCC(C)(C)C2CC[C@@]1(C)O (stereo not given in full) | > 4 mM (inactive)

Row | SMILES | Kd
21 | O=C(NCCCSc1ncccn1)Nc1ncccn1 | > 4 mM (inactive)
22 | O=C1CNC(=O)/C1=C/c1ccc(O)cc1 | > 4 mM (inactive)
23 | CCN(CC)c1nc2n(c(=O)n1)CCO2 | > 4 mM (inactive)
24 | CSCCNC(C)=O | > 4 mM (inactive)
25 | COc1c2ccoc2cc2oc(=O)ccc12 | > 4 mM (inactive)
26 | O=C(Nc1ccc(N2CCOCC2)cc1)c1cnsn1 | > 4 mM (inactive)
27 | CC(C)(O)CC[C@@H](O)[C@](C)(O)C1CC[C@@]2(O)C3=CC(=O)C4C[C@@H](O)[C@@H](O)C[C@]4(C)C3CC[C@]12C (stereo not given in full) | > 4 mM (inactive)
28 | COC(=O)N1CCN(c2ccc(OC)cc2)CC1 | > 4 mM (inactive)
29 | CC(=O)Oc1c(C)cc(O)c2ccccc12 | > 4 mM (inactive)
30 | O=C1NC(=S)S/C1=C/c1ccncc1 | > 4 mM (inactive)
31 | Cc1ccn(S(=O)(=O)c2ccc(C(C)(C)C)cc2)n1 | > 4 mM (inactive)
32 | COc1ccccc1Nc1nncc(=O)[nH]1 | > 4 mM (inactive)
33 | NCc1cc2ccccc2s1 | > 4 mM (inactive)
34 | O=C(O)/C=C/c1ccc(O)c(O)c1 | > 4 mM (inactive)
35 | O=C1CSC(=NC(=O)c2ccccc2)N1 | > 4 mM (inactive)
36 | CC(=O)Nc1cc(S(=O)(=O)N(C)C)ccc1Cl | > 4 mM (inactive)
37 | CN1C(=O)/C(=C/c2ccccc2O)NC1=S | > 4 mM (inactive)
38 | Nc1oncc1-c1ccccn1 | > 4 mM (inactive)
39 | CCOC(=O)c1c(C)n([O-])c2ccccc2[n+]1=O | > 4 mM (inactive)
40 | CC[C@H](/C=C/C(C)C1CCC2C3CCC4=CC(=O)CC[C@]4(C)C3CC[C@]12C)C(C)C (stereo not given in full) | > 4 mM (inactive)

Row | SMILES | Kd
41 | NC(=O)CSc1nnc2ccc3ccccc3n12 | > 4 mM (inactive)
42 | Nc1nsc(-c2ccccc2)n1 | > 4 mM (inactive)
43 | S=C(CN1CCCC1=S)N1CCOCC1 | > 4 mM (inactive)
44 | Cc1cc(=O)oc2cc(O)c(O)cc12 | > 4 mM (inactive)
45 | CC(=O)Nc1cccc(-c2nc3ccccc3c(=O)o2)c1 | > 4 mM (inactive)
46 | OC1CC(c2ccccc2)NC2(CCCC2)C1 (stereo not given) | > 4 mM (inactive)
47 | O=C1C2C3C=CC(C3)C2C(=O)N1CCO (stereo not given) | > 4 mM (inactive)
48 | CS(=O)(=O)CCCCN=C=S | > 4 mM (inactive)
49 | NS(=O)(=O)c1ccc(NC(=O)c2ccccc2F)cc1 | > 4 mM (inactive)
50 | Cc1occc1C(=O)Nc1nccs1 | > 4 mM (inactive)
51 | O=c1[nH]cc(N=Cc2ccc(F)cc2)c(=O)[nH]1 | > 4 mM (inactive)
52 | COC(=O)c1c(OC)cc2c(c1C)Oc1c(Cl)c(OC(C)=O)c(Cl)c(C)c1C(=O)O2 | > 4 mM (inactive)
53 | NC(=O)CSc1nnc(-c2ccncc2)o1 | > 4 mM (inactive)
54 | C=CC(=O)N1CC2CC(C1)c1cccc(=O)n1C2 (stereo not given) | > 4 mM (inactive)
55 | CC(C)(C)NC(=O)CN1C(=O)c2ccccc2S1(=O)=O | > 4 mM (inactive)
56 | NC(=O)Cc1nc(-c2ccc(F)cc2)cs1 | > 4 mM (inactive)
57 | Cc1ccc(S(C)(=O)=O)s1 | > 4 mM (inactive)
58 | O=C(O)c1ccc2c(c1)OCO2 | > 4 mM (inactive)
59 | CN1CCN(c2cc(=O)n(C)c(=O)[nH]2)CC1 | > 4 mM (inactive)
60 | CCOc1ccc(-c2n[nH]c(=S)n2C)cc1 | > 4 mM (inactive)
